From patent publication US20240067685A1, “HIDDEN ANTIBIOTICS IN THE HUMAN PROTEOME” (priority 2022, published 2024)
Converted amounts (≈) assume the structure as drawn. “And” between values parts separate entries of the source, which are not always exact repeats. Equal values may be shown once. Read-outs that look alike come from different tables or passages of the source. Non-standard residues stand in square brackets, D forms with d. Residues, ends and D or L forms follow the SMILES beside them. No end group written: not given here.

Tests used:
S. aureus ATCC 12600 [1] = test: microbe, parasite or virus in culture; conditions: for MIC values: conventional antimicrobial agents, Staphylococcus aureus ATCC 12600
Procedure: (§1) Antimicrobial activity. The antimicrobial activity of ApoB-derived encrypted peptides was assessed against a panel of skin pathogens, such as S. epidermidis ATCC 35984, S. aureus ATCC 12600, A. baumannii ATCC 17878, K. pneumoniae ATCC 700603, S. aureus MRSA (WK7-2), E. faecalis ATCC 29212 and P. aeruginosa PAO1 by using the broth microdilution method. ^20 Bacteria were grown to mid-logarithmic phase in MHB at 37° C. […] Following incubation over-night, each sample was diluted, plated on TSA, and incubated at 37° C. for 24 h to count the number of colonies. All experiments were performed in three independent replicates.

[2] = test system: S. epidermidis ATCC 35984; test: microbe, parasite or virus in culture; conditions: for MIC values: conventional antimicrobial agents, Staphylococcus epidermidis ATCC 35984
Procedure: as §1

[3] = test system: P. aeruginosa wild-type PAO1
Procedure: as §1

S. aureus MRSA (WKZ-2) = test system: S. aureus MRSA (WKZ-2)
Procedure: as §1

in vitro = conditions: 25% fetal bovine serum
Procedure: To determine its proteolytic stability, it was assessed whether (ri)-r(P)ApoBS^Pro was less susceptible to serum proteases compared to its parent peptide r(P)ApoBS^Pro.
Stability assay. The resistance to enzymatic degradation assay was performed according to the method described by Powell et al. ^72 Briefly, peptides at 2 mg mL^−1 were exposed to a solution of 25% fetal bovine serum in water. Aliquots were collected after 0.5, 1, 2, and 4 h and 10 μL of trifluoroacetic acid was added to them while the samples were on ice for 10 min. The enzymatic degradation of peptides was followed by reverse-phase high performance liquid chromatography coupled to mass spectrometry (RP-HPLC/ESI-MS). The percentage of remaining peptide was calculated by integrating the area under the curve related to the peptide at time point zero.
where AUCX is the area under the curve of the peak related to the peptide after t h (t=0.5, 1, 2, and 4 h), and AUC0 is the area under the curve of the peak related to the peptide at the beginning of the experiment. Three independent experimental replicates were performed, as previously described. ^73

A. baumannii ATCC 17878 [4] = test: microbe, parasite or virus in culture; conditions: for MIC values: conventional antimicrobial agents, Acinetobacter baumannii ATCC 17878
Procedure: as §1

[5] = test system: K. pneumoniae ATCC 700603; test: microbe, parasite or virus in culture; conditions: for MIC values: conventional antimicrobial agents, Klebsiella pneumoniae ATCC 700603
Procedure: as §1

S. aureus ATCC 12600 [6] = test: Bacterial resistance development assay (30 days); type: cell-based, Staphylococcus aureus
Procedure: (§2) Experiments were performed to assess whether prolonged exposure to ApoB-derived encrypted peptides led to the evolution of resistant phenotypes, since classical AMPs are known to be less likely to trigger bacterial resistance than standard antibiotics. ^41 The Gram-negative bacterial pathogen A. baumannii ATCC 17878, and the Gram-positives S. epidermidis ATCC 35984, and S. aureus ATCC 12600 were longitudinally treated with r(P)ApoBL^Pro, r(P)ApoBL^Ala, and r(P)ApoBS^Pro. Control sample groups were treated with the antibiotics colistin, gentamicin, and mupirocin, selected based on their distinct mechanisms of action, the former destabilizing the bacterial extracellular membrane and the latter acting on intracellular targets. […] A. baumannii resistance towards colistin increased by up to 8-fold, whereas S. epidermidis resistance to gentamicin and mupirocin increased by up to 16- and 8-fold, respectively (FIG. 3C). […] For example, both colistin-resistant A. baumannii ATCC 17878 and gentamicin-resistant S. epidermidis ATCC 35984 presented wrinkled borders (FIG. 2E) as opposed to the smooth colonies' characteristic of their morphology at the beginning of the experiment (FIG. 2E).
(§3) Bacterial resistance development assay. S. epidermidis ATCC 35984, S. aureus ATCC 12600 and A. baumannii ATCC 17878 bacterial strains were exposed to colistin, gentamicin, mupirocin, r(P)ApoBL^Pro, r(P)ApoBL^Ala or r(P)ApoBS^Pro. Once, we detected the MIC values for each peptide or antibiotic against the bacterial strains tested, we transferred bacterial cells that survived the exposure at a sub-inhibitory (MIC/2) concentration, and they were re-grown and re-exposed to the respective peptide or antibiotic. ^20 The treatment was repeated for 30 days. Strains that developed resistance to antibiotics presented higher MICs at subsequent passages and the cells from the last passage were isolated and stored for scanning electron microscopy analyses.

A. baumannii ATCC 17878 [7] = test: Bacterial resistance development assay (30 days); type: cell-based, Acinetobacter baumannii; conditions: for MIC: Acinetobacter baumannii; for change in MIC (resistance development): 30 days of treatment
Procedure: as §2, §3

[8] = test system: S. epidermidis ATCC 35984; test: Bacterial resistance development assay (30 days); type: cell-based, Staphylococcus epidermidis; conditions: for change in MIC (resistance development): S. epidermidis, 30 days of treatment; for MIC: Staphylococcus epidermidis
Procedure: as §2, §3

E. faecalis ATCC 29212 = test system: E. faecalis ATCC 29212
Procedure: as §1

[9] = Acinetobacter baumannii, ATCC17878, read-out: MIC values
[10] = Staphylococcus aureus, ATCC12600, read-out: MIC values
[11] = Staphylococcus epidermidis, ATCC35984, read-out: MIC values
[12] = Klebsiella pneumoniae, ATCC700603, read-out: MIC values

Compound: CC[C@@H](C)[C@@H](NC(=O)[C@H]1CCCN1C(=O)[C@@H](CO)NC(=O)[C@H]1CCCN1C(=O)[C@@H](CCCCN)NC(=O)[C@@H](CCCNC(=N)N)NC(=O)[C@H]1CCCN1C(=O)[C@H](NC(=O)[C@@H](CCCCN)NC(=O)[C@@H](CC(C)C)NC(=O)[C@@H](CC(C)C)NC(=O)[C@@H](CO)NC(=O)CN)C(C)C)C(=O)N[C@@H](C(=O)N[C@H](Cc1ccccc1)C(=O)N[C@H](CCCCN)C(=O)N[C@H](CC(C)C)C(=O)N[C@H](CCCCN)C(=O)NCC(=O)N1CCC[C@@H]1C(=O)N[C@H](CCCCN)C(=O)N[C@H](CC(C)C)C(=O)N[C@H](C)C(=O)N[C@@H](C(=O)N[C@H](Cc1c[nH]cn1)C(=O)N1CCC[C@@H]1C(=O)O)C(C)C)[C@H](C)CC [(ri)-r(P)ApoBS^Pro] (H-G[dS][dL][dL][dK][dV][dP][dR][dK][dP][dS][dP][dI][dI][dF][dK][dL][dK]G[dP][dK][dL][dA][dV][dH][dP]-OH; N-terminus and C-terminus assumed)
- MIC (S. aureus ATCC 12600 [1]; ATCC 12600): 20 µM
- MIC ([2]; ATCC 35984): 10 µM
- MIC [3]: 10 µM (≈ 28.2 µg/mL)
- MIC (S. aureus MRSA (WKZ-2)): 10 µM (≈ 28.2 µg/mL)
- remaining at 4 h, 2 mg mL^-1 (in vitro; bovine): ~50%

Compound: O=C(OOC(=O)c1ccccc1)c1ccccc1 [Benzoyl Peroxide]
- MIC (A. baumannii ATCC 17878 [4]; [9]): 32 µg/mL
- MIC values [5]: Resistant
- MIC (S. aureus ATCC 12600 [1]; [10]): 16 µg/mL
- MIC [2, 11]: 16 µg/mL

Compound: CCC[C@@H]1C[C@@H](C(=O)N[C@@H]([C@H]2O[C@H](SC)[C@H](O)[C@@H](O)[C@H]2O)[C@H](C)Cl)N(C)C1 [Clindamycin]
- MIC (A. baumannii ATCC 17878 [4]; [9]): 62.5 µg/mL
- MIC [5, 12]: 125 µg/mL
- MIC (S. aureus ATCC 12600 [1]; [10]): 0.5 µg/mL

Compound: O=C(O)CN(CCN(CC(=O)O)CC(=O)O)CC(=O)O [EDTA]
- MIC values (A. baumannii ATCC 17878 [4]): 24.5 µg/mL (≈ 83.8 µM)
- MIC values [5]: 49 µg/mL (≈ 168 µM)
- MIC values (S. aureus ATCC 12600 [1]): 24.5 µg/mL (≈ 83.8 µM)
- MIC values [2]: 196 µg/mL (≈ 671 µM)

Compound: CC[C@H]1OC(=O)[C@H](C)[C@@H](O[C@H]2C[C@@](C)(OC)[C@@H](O)[C@H](C)O2)[C@H](C)[C@@H](O[C@@H]2O[C@H](C)C[C@H](N(C)C)[C@H]2O)[C@](C)(O)C[C@@H](C)C(=O)[C@H](C)[C@@H](O)[C@]1(C)O [Erytromycin]
- MIC (A. baumannii ATCC 17878 [4]; [9]): 125 µg/mL
- MIC [5, 12]: 7.8 µg/mL
- MIC (S. aureus ATCC 12600 [1]; [10]): 15 µg/mL
- MIC values [2]: Resistant

Compound: CC(=O)O[C@H]1C[C@@]2(C)[C@@H](C[C@@H](O)[C@H]3[C@@]4(C)CC[C@@H](O)[C@@H](C)[C@@H]4CC[C@@]32C)/C1=C(\CCC=C(C)C)C(=O)O [Fusidic acid]
- MIC (A. baumannii ATCC 17878 [4]; [9]): 2.25 µg/mL
- MIC values [5]: Resistant
- MIC (S. aureus ATCC 12600 [1]; [10]): 0.06 µg/mL
- MIC [2, 11]: 0.06 µg/mL

Compound: CN[C@H](CC(C)C)C(=O)N[C@H]1C(=O)N[C@@H](CC(N)=O)C(=O)N[C@H]2C(=O)N[C@H]3C(=O)N[C@H](C(=O)N[C@H](C(=O)O)c4cc(O)cc(O)c4-c4cc3ccc4O)[C@H](O)c3ccc(c(Cl)c3)Oc3cc2cc(c3O[C@@H]2O[C@H](CO)[C@@H](O)[C@H](O)[C@H]2O[C@H]2C[C@](C)(N)[C@H](O)[C@H](C)O2)Oc2ccc(cc2Cl)[C@H]1O [Vancomycin]
- MIC (A. baumannii ATCC 17878 [4]; [9]): 50 µg/mL
- MIC [5, 12]: 50 µg/mL
- MIC (S. aureus ATCC 12600 [1]; [10]): 0.78 µg/mL
- MIC [2, 11]: 1.56 µg/mL

Compound: C/C(=C\C(=O)OCCCCCCCCC(=O)O)C[C@@H]1OC[C@H](C[C@@H]2O[C@H]2[C@@H](C)[C@H](C)O)[C@@H](O)[C@H]1O [mupirocin]
- MIC before increase (S. aureus ATCC 12600 [6]; before the increase): 0.024 μg mL^−1 and 0.048 μmol L^−1
- MIC after increase (S. aureus ATCC 12600 [6]; between days 15 and 21 of treatment): 0.19 μg mL^−1 and 0.38 μmol L^−1
- change in MIC (resistance development) (S. aureus ATCC 12600 [6]; prolonged treatment): 8 fold
- MIC (A. baumannii ATCC 17878 [7]; ATCC17878, read-out: MIC after 30 days of treatment): 400 µg/mL and 800 µM
- MIC (A. baumannii ATCC 17878 [7]; ATCC17878, read-out: MIC at start of resistance study): 100 µg/mL and 200 µM
- change in MIC (resistance development) [8]: up to 8 fold
- MIC ([8]; ATCC35984, read-out: MIC after prolonged treatment): 0.012 µg/mL and 0.024 µM
- MIC ([8]; ATCC35984, read-out: MIC at start of resistance study): 0.0015 µg/mL and 0.003 µM

Compound: Colistin
- MIC values (A. baumannii ATCC 17878 [4]): 3.12 µg/mL
- MIC values [5]: 3.12 µg/mL
- MIC values (S. aureus ATCC 12600 [1]): 12.5 µg/mL
- MIC values [2]: 3.12 µg/mL
- change in MIC (resistance development) (A. baumannii ATCC 17878 [7]; A. baumannii): up to 8 fold
- MIC after 30 days of treatment (A. baumannii ATCC 17878 [7]; A. baumannii): 25 µg/mL
- MIC after 30 days of treatment (A. baumannii ATCC 17878 [7]; A. baumannii, listed as colistin): 21.6 µM
- MIC at start of resistance study (A. baumannii ATCC 17878 [7]; A. baumannii, before prolonged treatment): 3.12 μg mL^−1 and 2.7 μmol L^−1
- change in MIC (resistance development) [8]: No significant resistance development

Compound: Gentamicin
- MIC values (A. baumannii ATCC 17878 [4]): 0.25 µg/mL
- MIC values [5]: 0.5 µg/mL
- MIC values (S. aureus ATCC 12600 [1]): 1 µg/mL
- MIC values [2]: 2 µg/mL
- change in MIC (resistance development) (A. baumannii ATCC 17878 [7]; A. baumannii): did not change
- change in MIC (resistance development) [8]: up to 16 fold

Compound: PHVALKAGKLKFIIPSPKRPVKLLSGGNTLHLVSTTKT [r(P)ApoBL^Ala]
- MIC (A. baumannii ATCC 17878 [4]; ATCC 17878): 2.5 µM
- MIC ([5]; ATCC 700603): 5 µM
- MIC (S. aureus ATCC 12600 [1]; ATCC 12600): 20 µM
- MIC ([2]; ATCC 35984): 10 µM
- MIC [3]: 2.5 µM
- MIC (S. aureus MRSA (WKZ-2)): 10 µM
- MIC (E. faecalis ATCC 29212): 10 µM
- stability in the presence of serum (in vitro): degraded within minutes

Compound: PHVALKPGKLKFIIPSPKRPVKLLSGGNTLHLVSTTKT [r(P)ApoBL^Pro]
- MIC (A. baumannii ATCC 17878 [4]; ATCC 17878): 5 µM
- MIC ([5]; ATCC 700603): 10 µM
- MIC (S. aureus ATCC 12600 [1]; ATCC 12600): 20 µM
- MIC ([2]; ATCC 35984): 10 µM
- MIC [3]: 5 µM
- MIC (S. aureus MRSA (WKZ-2)): 20 µM
- MIC (E. faecalis ATCC 29212): 20 µM
- stability in the presence of serum (in vitro): degraded within minutes

Compound: Polymyxin B
- MIC values (A. baumannii ATCC 17878 [4]): 6.25 µg/mL
- MIC values [5]: 6.25 µg/mL
- MIC values (S. aureus ATCC 12600 [1]): 12.5 µg/mL
- MIC values [2]: 3.12 µg/mL
